# Legend:
# [1] = Phototoxicity in human keloid fibroblasts assessed as cell viability at 2 to 8 umol/L pre-incubated for 4 hrs before 0.5 J.cm2 UVA irradiation by MTT assay; type: functional
# [2] = Dark toxicity in mouse B16F10 cells assessed as reduction in cell viability after 24 hrs by MTT assay; type: cell-based, B16-F10
# B16-F10 = experiment: Phototoxicity in mouse B16F10 cells assessed as reduction in cell viability under irradiation with >500 nm light after 24 hrs by MTT assay; type: functional, cell-based; conditions: B16-F10, light or radiation study
# [3] = Dark toxicity in human C8161 cells assessed as reduction in cell viability after 24 hrs by MTT assay; type: cell-based
# [4] = Phototoxicity in human C8161 cells assessed as reduction in cell viability under irradiation with >500 nm light after 24 hrs by MTT assay; type: functional, cell-based; conditions: C8161, light or radiation study
# [5] = Dark toxicity in human PBMC assessed as reduction in cell viability after 24 hrs by MTT assay; type: cell-based
# PBMC [6] = experiment: Phototoxicity in human PBMC assessed as reduction in cell viability under irradiation with >500 nm light after 24 hrs by MTT assay; type: cell-based; conditions: light or radiation study
# PBMC [7] = experiment: Phototoxicity in human PBMC assessed as reduction in cell viability at 20 uM under irradiation with >500 nm light after 24 hrs by MTT assay; type: cell-based
# [8] = Dark toxicity in human MCF7/DX cells assessed as inhibition of cell growth at 1 uM after 24 hrs by MTT assay; type: cell-based; conditions: read-out: GI
# [9] = Phototoxicity in human MCF7/DX cells assessed as inhibition of cell growth at 1 uM pre-incubated for 4 hrs before photoirradiation with 430 nm light and measured after 24 hrs post irradiation by MTT assay; type: functional; conditions: light or radiation study, read-out: GI
# [10] = Phototoxicity in human MCF7/DX cells assessed as inhibition of cell growth at 1 uM pre-incubated for 24 hrs before photoirradiation with 430 nm light and measured after 24 hrs post irradiation by MTT assay; type: functional; conditions: light or radiation study, read-out: GI
# [11] = Dark toxicity in wild type human MCF7 cells assessed as inhibition of cell growth at 1 uM after 24 hrs by MTT assay; type: cell-based; conditions: read-out: GI
# MCF7 [12] = experiment: Phototoxicity in wild type human MCF7 cells assessed as inhibition of cell growth at 1 uM pre-incubated for 4 hrs before photoirradiation with 430 nm light and measured after 24 hrs post irradiation by MTT assay; type: functional; conditions: MCF7, light or radiation study, read-out: GI
# MCF7 [13] = experiment: Phototoxicity in wild type human MCF7 cells assessed as inhibition of cell growth at 1 uM pre-incubated for 24 hrs before photoirradiation with 430 nm light and measured after 24 hrs post irradiation by MTT assay; type: functional; conditions: MCF7, light or radiation study, read-out: GI
# [14] = Dark toxicity in human MDA-MB-231 cells assessed as reduction in cell viability by MTT assay; type: cell-based
# MDA-MB-231 = experiment: Phototoxicity in human MDA-MB-231 cells assessed as reduction in cell viability pre-incubated for 1 hr before photo-irradiation with 700 mW-630 nm laser light for 15 mins by MTT assay; type: functional, cell-based; conditions: MDA-MB-231, light or radiation study
# [15] = Dark toxicity in human MCF7 cells assessed as reduction in cell viability by MTT assay; type: cell-based
# MCF7 [16] = experiment: Phototoxicity in human MCF7 cells assessed as reduction in cell viability pre-incubated for 1 hr before photo-irradiation with 700 mW-630 nm laser light for 15 mins by MTT assay; type: functional, cell-based; conditions: MCF7, light or radiation study
# [17] = Dark toxicity in human MCF10A cells assessed as reduction in cell viability by MTT assay; type: cell-based, MCF-10A
# MCF-10A = experiment: Phototoxicity in human MCF10A cells assessed as reduction in cell viability pre-incubated for 1 hr before photo-irradiation with 700 mW-630 nm laser light for 15 mins by MTT assay; type: cell-based; conditions: light or radiation study
# [18] = Dark toxicity in human SCC131 cells assessed as reduction in cell viability by MTT assay; type: cell-based
# [19] = Phototoxicity in human SCC131 cells assessed as reduction in cell viability pre-incubated for 1 hr before photo-irradiation with 700 mW-630 nm laser light for 15 mins by MTT assay; type: functional, cell-based; conditions: SCC131, light or radiation study
# [20] = Dark toxicity in human SCC172 cells assessed as reduction in cell viability by MTT assay; type: cell-based
# [21] = Phototoxicity in human SCC172 cells assessed as reduction in cell viability pre-incubated for 1 hr before photo-irradiation with 700 mW-630 nm laser light for 15 mins by MTT assay; type: functional, cell-based; conditions: SCC172, light or radiation study
# [22] = Dark toxicity in human HCT116 cells assessed as reduction in cell viability by MTT assay; type: cell-based, HCT-116
# HCT-116 = experiment: Phototoxicity in human HCT116 cells assessed as reduction in cell viability pre-incubated for 1 hr before photo-irradiation with 700 mW-630 nm laser light for 15 mins by MTT assay; type: functional, cell-based; conditions: HCT-116, light or radiation study
# [23] = Dark toxicity in human HeLa cells assessed as reduction in cell viability by MTT assay; type: cell-based
# HeLa [24] = experiment: Phototoxicity in human HeLa cells assessed as reduction in cell viability pre-incubated for 1 hr before photo-irradiation with 700 mW-630 nm laser light for 15 mins by MTT assay; type: functional, cell-based; conditions: light or radiation study
# [25] = Dark toxicity in human SiHa cells assessed as reduction in cell viability by MTT assay; type: cell-based
# SiHa = experiment: Phototoxicity in human SiHa cells assessed as reduction in cell viability pre-incubated for 1 hr before photo-irradiation with 700 mW-630 nm laser light for 15 mins by MTT assay; type: functional, cell-based; conditions: light or radiation study
# [26] = Dark toxicity in human MIAPaCa2 cells assessed as reduction in cell viability by MTT assay; type: cell-based, MIA PaCa-2
# MIA PaCa-2 = experiment: Phototoxicity in human MIAPaCa2 cells assessed as reduction in cell viability pre-incubated for 1 hr before photo-irradiation with 700 mW-630 nm laser light for 15 mins by MTT assay; type: functional, cell-based; conditions: MIA PaCa-2, light or radiation study
# [27] = Dark toxicity in mouse L5178Y cells assessed as cell viability at 0.5 uM; type: cell-based; conditions: read-out: Activity
# L5178Y = experiment: Phototoxicity in mouse L5178Y cells assessed as cell viability at 0.5 uM under irradiation by visible light at 337.5 kJ/m2 between 400 to 800 nm; type: functional; conditions: light or radiation study, read-out: Activity
# [28] = Dark toxicity in Chinese hamster AS52 cells assessed as cloning efficiency at 1 uM; type: cell-based, Cricetulus griseus
# [29] = Phototoxicity in Chinese hamster AS52 cells assessed as cloning efficiency at 1 uM under irradiation by visible light at 337.5 kJ/m2 between 400 to 800 nm; type: functional, Cricetulus griseus
# HeLa [30] = experiment: Phototoxicity in human HeLa cells assessed as reduction in cell viability in presence of irradiation with 625 nm laser light by MTT assay; type: functional, cell-based; conditions: light or radiation study
# [31] = Phototoxicity in human MCF7/DX cells assessed as inhibition of cell growth at 1 uM pre-incubated for 4 hrs before photoirradiation with 530 to 550 nm light and measured after 24 hrs post irradiation by MTT assay; type: functional; conditions: light or radiation study, read-out: GI
# [32] = Phototoxicity in human MCF7/DX cells assessed as inhibition of cell growth at 1 uM pre-incubated for 24 hrs before photoirradiation with 530 to 550 nm light and measured after 24 hrs post irradiation by MTT assay; type: functional; conditions: light or radiation study, read-out: GI
# [33] = Phototoxicity in human MCF7/DX cells assessed as inhibition of cell growth at 1 uM pre-incubated for 4 hrs before photoirradiation with 630 nm light and measured after 24 hrs post irradiation by MTT assay; type: functional; conditions: light or radiation study, read-out: GI
# [34] = Phototoxicity in human MCF7/DX cells assessed as inhibition of cell growth at 1 uM pre-incubated for 24 hrs before photoirradiation with 630 nm light and measured after 24 hrs post irradiation by MTT assay; type: functional; conditions: light or radiation study, read-out: GI
# MCF7 [35] = experiment: Phototoxicity in wild type human MCF7 cells assessed as inhibition of cell growth at 1 uM pre-incubated for 4 hrs before photoirradiation with 530 to 550 nm light and measured after 24 hrs post irradiation by MTT assay; type: functional; conditions: MCF7, light or radiation study, read-out: GI
# MCF7 [36] = experiment: Phototoxicity in wild type human MCF7 cells assessed as inhibition of cell growth at 1 uM pre-incubated for 24 hrs before photoirradiation with 530 to 550 nm light and measured after 24 hrs post irradiation by MTT assay; type: functional; conditions: MCF7, light or radiation study, read-out: GI
# MCF7 [37] = experiment: Phototoxicity in wild type human MCF7 cells assessed as inhibition of cell growth at 1 uM pre-incubated for 4 hrs before photoirradiation with 630 nm light and measured after 24 hrs post irradiation by MTT assay; type: functional; conditions: MCF7, light or radiation study, read-out: GI
# MCF7 [38] = experiment: Phototoxicity in wild type human MCF7 cells assessed as inhibition of cell growth at 1 uM pre-incubated for 24 hrs before photoirradiation with 630 nm light and measured after 24 hrs post irradiation by MTT assay; type: functional; conditions: MCF7, light or radiation study, read-out: GI
# HeLa [39] = experiment: Phototoxicity in human HeLa cells assessed as reduction in cell viability in presence of irradiation with 700 to 1000 nm near-infrared light; type: functional, cell-based; conditions: light or radiation study
# HeLa [40] = experiment: Phototoxicity in human HeLa cells assessed as reduction in cell viability in presence of irradiation with white light; type: functional, cell-based; conditions: light or radiation study
smiles,measurement,setting,value
Nc1ccc(-c2nc3ccccc3s2)cc1,Activity,[1],50%
CCN1/C(=C\C=C\c2sc3cc4c(cc3[n+]2CC)sc(/C=C/C=C2\N(CC)c3ccccc3C2(C)C)[n+]4CC)C(C)(C)c2ccccc21,IC50 at 24 h,[2],20 µM
same,IC50,B16-F10,5 µM
same,IC50 at 24 h,[3],20 µM
same,IC50,[4],5 µM
same,IC50 at 24 h,[5],20 µM
same,IC50,PBMC [6],20 µM
same,Activity,PBMC [7],<= 70%
CCN1C(=O)/C(=C\C=C2/SCCN2C)OC1=S,"inhibition at 24 h, 1 µM",[8],10%
same,inhibition of growth at 1 µM,[9],40%
same,inhibition of growth at 1 µM,[10],10%
same,"inhibition at 24 h, 1 µM",[11],20%
same,inhibition of growth at 1 µM,MCF7 [12],> 40%
same,inhibition of growth at 1 µM,MCF7 [13],20%
O=C1C(I)=C(O)C(=C2C(=O)C(c3c(O)c(I)c(O)c(I)c3O)=C2O)C(O)=C1I,IC50,[14],> 50 µM
same,IC50,MDA-MB-231,19.8 µM
same,IC50,[15],> 50 µM
same,IC50,MCF7 [16],25.3 µM
same,IC50,[17],> 50 µM
same,IC50,MCF-10A,44.7 µM
same,IC50,[18],> 50 µM
same,IC50,[19],30.7 µM
same,IC50,[20],> 50 µM
same,IC50,[21],34.7 µM
same,IC50,[22],> 50 µM
same,IC50,HCT-116,26 µM
same,IC50,[23],> 50 µM
same,IC50,HeLa [24],36 µM
same,IC50,[25],> 50 µM
same,IC50,SiHa,33.7 µM
same,IC50,[26],> 50 µM
same,IC50,MIA PaCa-2,28.3 µM
same,viability at 0.5 µM,[27],90%
same,viability at 0.5 µM,L5178Y,< 10%
same,Activity,[28],90%
same,Activity,[29],10%
COC(=O)c1ccc(C2=C3C(Br)=c4sc(-c5ccc(Br)s5)cc4=[N+]3[B-](F)(F)n3c2cc2sc(-c4ccc(Br)s4)cc23)cc1,IC50,HeLa [30],7.12 µM
CCN1/C(=C/C(C)=C/c2sc3ccccc3[n+]2CC)Sc2ccccc21,"inhibition at 24 h, 1 µM",[8],10%
same,inhibition of growth at 1 µM,[31],20%
same,inhibition of growth at 1 µM,[32],20%
same,inhibition of growth at 1 µM,[33],60%
same,inhibition of growth at 1 µM,[34],> 80%
same,"inhibition at 24 h, 1 µM",[11],20%
same,inhibition of growth at 1 µM,MCF7 [35],60%
same,inhibition of growth at 1 µM,MCF7 [36],60%
same,inhibition of growth at 1 µM,MCF7 [37],50%
same,inhibition of growth at 1 µM,MCF7 [38],80%
Nc1ccc(-c2ccc3nc4ccc(-c5ccc(N)cc5)cc4[s+]c3c2)cc1,EC50,HeLa [39],8 µM
same,EC50,HeLa [40],6 µM
